Data as given in US20240246905A1 (University of Leicester, priority 2021, published 2024).
Values after ≈ are worked out from the molar mass of the structure shown.

Legend:
[1] = test system: HEK293 cells; test: Cytotoxicity assay, resazurin (CO-ADD)
Procedure: The cytotoxicity studies were performed by CO-ADD (The Community for Open Antimicrobial Drug Discovery), funded by the Wellcome trust (UK) and the University of Queensland, Australia.^(28) In this study, the compounds were screened against a human embryonic kidney cell line, HEK293, at a set concentration of 32 μg/mL.
DMEM supplemented with 10% FBS was used as growth media and the cells were incubated together with the compounds for 20 hours at 37° C. in 5% CO2.
Cytotoxicity (or cell viability) was measured by fluorescence, excitation: 560/10 nm, emission: 590/10 nm (F560/590), after addition of 5 μL of 25 μg/mL Resazurin (2.3 μg/mL final concentration) and after incubation for further 3 h at 37° C. in 5% CO2. The fluorescence intensity was measured using a Tecan M1000 Pro monochromator plate reader, using automatic gain calculation CC50 (concentration at 50% cytotoxicity) were calculated by curve fitting the inhibition values vs. log(concentration) using sigmoidal dose-response function, with variable fitting values for bottom, top and slope. The curve fitting was implemented using Pipeline Pilot's dose-response component.

[2] = test system: red blood cells; test: Hemolysis assay (CO-ADD); format: cell-based; details: 32 μg/mL highest concentration tested
Text: A problem often encountered by emerging drugs is hemolysis, also known as drug-induced immune hemolytic anemia.

[3] = test system: MSSA 476; test: Disc diffusion (Kirby-Bauer), zone of inhibition; format: cell-based, Staphylococcus aureus; details: Staphylococcus aureus, 500 μg/mL, '/' = no zone, read-out: Zone of inhibition
Procedure: (§1) E. coli DH5α, P. aeruginosa PA01 and the 53 S. aureus strains were recovered from frozen (−80° C.) glycerol (15% v/v) stocks on Lysogeny agar (LA)—Gram negative and trypticase soy agar (TSA)—plates at 37° C. for 24 hours. Single colonies were placed in either 3 mL Lysogeny broth (LB)—Gram negative or trypticase soy broth (TSB)—Gram positive and incubated at 37° C., 250 rpm for 18 hours.
(§2) The antibiotic activity was determined using a Kirby-Bauer method according to Clinical Standard Laboratory Institute (CSLI) Guidelines (2017). Briefly, 180 μL of a 1 in 200 dilution (in LB or TSB) of overnight cultures of selected Gram negative and Gram positive bacteria were applied to an agar plate containing the solid growth medium, Mueller-Hinton agar (MHA). Sterile discs, inoculated with 50 μL of antibiotic, were first added to the agar plate before the plates were incubated for 24 hours at 37° C. Following incubation, the zone of inhibition (if it existed) was recorded.

[4] = test system: MRSA 252; test: Disc diffusion (Kirby-Bauer), zone of inhibition; format: cell-based, Staphylococcus aureus; details: Staphylococcus aureus, 500 μg/mL, '/' = no zone, read-out: Zone of inhibition
Procedure: as §1, §2

[5] = test system: Staphylococcus aureus 15981; test: Disc diffusion (Kirby-Bauer), zone of inhibition; format: cell-based; details: Staphylococcus aureus 15981; 500 μg/mL; '/' = no zone; read-out: Zone of inhibition
Procedure: as §1, §2

[6] = test system: various Staphylococcus aureus strains; test: Disc diffusion, Staphylococcus aureus strain study; format: cell-based; details: Staphylococcus aureus, 500 μg/mL
Text: At this point in the study it was decided to perform a disc diffusion assay study on 50 S. aureus strains. […] Moreover, by employing a range of mutant strains of S. aureus with specific gene-deletions, it was believed that if particular strains were resistant to the lead compounds, it could provide insights on the likely protein target of the lead antibiotics. However, all six of the compounds utilized in this study were able to inhibit growth of all 50 strains of S. aureus assayed at the chosen concentration of 500 μg/mL concentration (Table 5).
as §1, §2

[7] = test system: MSSA 476; test: MIC, broth micro-dilution; format: cell-based, Staphylococcus aureus; details: Staphylococcus aureus, MSSA, read-out: MIC
Procedure: as §1
(§3) Antibiotic MIC's were determined by a broth micro-dilution method according to Clinical Standard Laboratory Institute (CSLI) Guidelines (2017). Briefly, 96-well microplates, each containing 195 μL of the 1:2 dilution antibiotic in TSB, were inoculated with 5 μL of overnight cultured bacteria, diluted to give a starting bacterial concentration of 5×10^5 CFU/mL. The optical density of each well inoculated was recorded every 12 minutes over an 18 hour period at 37° C. The data from this was plotted in OriginPro8 (OriginLab) and sigmoidal curves fitted using the dose response function. Fitted values for each curve were used to calculate the MIC.

[8] = test system: MRSA 252; test: MIC, broth micro-dilution; format: cell-based, Staphylococcus aureus; details: Staphylococcus aureus, read-out: MIC
Procedure: as §1, §3

[C-]#[N+]C=Cc1cc(Br)ccc1O [Compound 13]
Concentration toxic to HEK 293 cells ([1]; HEK 293): >32000 ng/mL | toxicity towards the HEK293 cell line (in words) ([1]; set concentration of 32 μg/mL): no toxicity | Hemolytic activity (HC10) [2]: >32 µg/mL | zone of inhibition at 500 µg/mL [3]: 22 mm | zone of inhibition at 500 µg/mL [4]: 22 mm | zone of inhibition at 500 µg/mL [5]: 18 mm | zone of inhibition at 500 µg/mL ([6]; strain ASARM 61): 20 mm | zone of inhibition at 500 µg/mL ([6]; strain ASARM 70): 20 mm | zone of inhibition at 500 µg/mL ([6]; strain ASARM 71): 20 mm | zone of inhibition at 500 µg/mL ([6]; strain ASARM 72): 16 mm | zone of inhibition at 500 µg/mL ([6]; strain ASARM 73): 20 mm | zone of inhibition at 500 µg/mL ([6]; strain ASARM 75): 20 mm | zone of inhibition at 500 µg/mL ([6]; strain ASARM 76): 20 mm | zone of inhibition at 500 µg/mL ([6]; strain ASARM 77): 20 mm | zone of inhibition at 500 µg/mL ([6]; strain ASARM 79): 20 mm | zone of inhibition at 500 µg/mL ([6]; strain ASARM 80): 18 mm | zone of inhibition at 500 µg/mL ([6]; strain EOE 3): 24 mm | zone of inhibition at 500 µg/mL ([6]; strain EOE 23): 22 mm | zone of inhibition at 500 µg/mL ([6]; strain EOE 30): 22 mm | zone of inhibition at 500 µg/mL ([6]; strain EOE 35): 22 mm | zone of inhibition at 500 µg/mL ([6]; strain EOE 41): 20 mm | zone of inhibition at 500 µg/mL ([6]; strain EOE 42): 20 mm | zone of inhibition at 500 µg/mL ([6]; strain EOE 45): 24 mm | zone of inhibition at 500 µg/mL ([6]; strain EOE 52): 22 mm | zone of inhibition at 500 µg/mL ([6]; strain EOE 54): 22 mm | zone of inhibition at 500 µg/mL ([6]; strain EOE 57): 25 mm | zone of inhibition at 500 µg/mL ([6]; strain S139_7_7): 24 mm | zone of inhibition at 500 µg/mL ([6]; strain S197_1_1): 26 mm | zone of inhibition at 500 µg/mL ([6]; strain S197_1_8): 20 mm | zone of inhibition at 500 µg/mL ([6]; strain S197_1_9): 20 mm | zone of inhibition at 500 µg/mL ([6]; strain S197_1_10): 20 mm | zone of inhibition at 500 µg/mL ([6]; strain S295_1_1): 22 mm | zone of inhibition at 500 µg/mL ([6]; strain S295_1_2): 20 mm | zone of inhibition at 500 µg/mL ([6]; strain S295_1_3): 20 mm | zone of inhibition at 500 µg/mL ([6]; strain S364_5_11): 20 mm | zone of inhibition at 500 µg/mL ([6]; strain S364_5_12): 25 mm | zone of inhibition at 500 µg/mL ([6]; strain Sa_TPS 3026): 20 mm | zone of inhibition at 500 µg/mL ([6]; strain Sa_TPS 3072): 21 mm | zone of inhibition at 500 µg/mL ([6]; strain Sa_TPS 3092): 20 mm | zone of inhibition at 500 µg/mL ([6]; strain Sa_TPS 3097): 20 mm | zone of inhibition at 500 µg/mL ([6]; strain Sa_TPS 3103): 20 mm | zone of inhibition at 500 µg/mL ([6]; strain Sa_TPS 3104): 22 mm | zone of inhibition at 500 µg/mL ([6]; strain Sa_TPS 3106): 16 mm | zone of inhibition at 500 µg/mL ([6]; strain Sa_TPS 3118): 22 mm | zone of inhibition at 500 µg/mL ([6]; strain Sa_TPS 3133): 20 mm | zone of inhibition at 500 µg/mL ([6]; strain Sa_TPS 3134): 18 mm | zone of inhibition at 500 µg/mL ([6]; strain USFL 008): 18 mm | zone of inhibition at 500 µg/mL ([6]; strain USFL 009): 22 mm | zone of inhibition at 500 µg/mL ([6]; strain USFL 012): 22 mm | zone of inhibition at 500 µg/mL ([6]; strain USFL 016): 20 mm | zone of inhibition at 500 µg/mL ([6]; strain USFL 018): 20 mm | zone of inhibition at 500 µg/mL ([6]; strain USFL 020): 20 mm | zone of inhibition at 500 µg/mL ([6]; strain USFL 021): 22 mm | zone of inhibition at 500 µg/mL ([6]; strain USFL 028): 22 mm | zone of inhibition at 500 µg/mL ([6]; strain USFL 035): 22 mm | zone of inhibition at 500 µg/mL ([6]; strain USFL 054): 22 mm | MIC [7]: 145 µg/mL (≈ 647 µM) | MIC [8]: 35 µg/mL (≈ 156 µM)
